Converted amounts (≈) assume the structure as drawn. The source made the active and inactive calls. No cut-off for these calls is given here.
Legend:
[1] = tested on: Mycobacterium tuberculosis; experiment: Bacteriostatic activity against rifampicin, isoniazid, streptomycin, ethambutol and pyrazinamide-resistant Mycobacterium tuberculosis MS-115 assessed as growth inhibition at 2 ug/mL relative to control; assay type: functional; conditions: read-out: GI
[2] = tested on: Mycobacterium tuberculosis; experiment: Bacteriostatic activity against rifampicin, isoniazid, streptomycin, ethambutol and pyrazinamide-resistant Mycobacterium tuberculosis MS-115 assessed as growth inhibition; assay type: functional
[3] = tested on: Mycobacterium tuberculosis; experiment: Bacteriostatic activity against rifampicin, isoniazid, streptomycin, ethambutol and pyrazinamide-resistant Mycobacterium tuberculosis MS-115 assessed as growth inhibition at 50 ug/mL relative to control; assay type: functional; conditions: read-out: GI
[4] = tested on: Mycobacterium tuberculosis; experiment: Bacteriostatic activity against rifampicin, isoniazid, streptomycin, ethambutol and pyrazinamide-resistant Mycobacterium tuberculosis MS-115 assessed as growth inhibition at 200 ug/mL relative to control; assay type: functional; conditions: read-out: GI
[5] = tested on: Mycobacterium tuberculosis; experiment: Bacteriostatic activity against rifampicin, isoniazid, streptomycin, ethambutol and pyrazinamide-resistant Mycobacterium tuberculosis MS-115 assessed as growth inhibition at 20 ug/mL relative to control; assay type: functional; conditions: read-out: GI
[6] = tested on: Mycobacterium tuberculosis; experiment: Bacteriostatic activity against rifampicin, isoniazid, streptomycin, ethambutol and pyrazinamide-resistant Mycobacterium tuberculosis MS-115 assessed as growth inhibition at 2 to 200 ug/mL relative to control; assay type: functional, organism-based
[7] = tested on: Mycobacterium tuberculosis; experiment: Bacteriostatic activity against rifampicin, isoniazid, streptomycin, ethambutol and pyrazinamide-resistant Mycobacterium tuberculosis MS-115 assessed as growth inhibition at 5 ug/mL relative to control; assay type: functional; conditions: read-out: GI
[8] = tested on: Mycobacterium tuberculosis; experiment: Bacteriostatic activity against rifampicin, isoniazid, streptomycin, ethambutol and pyrazinamide-resistant Mycobacterium tuberculosis MS-115 assessed as growth inhibition at 10 ug/mL relative to control; assay type: functional; conditions: read-out: GI

Compound	inhibition of growth at 2 µg/mL [1] [%]	MIC99 [2]	inhibition of growth at 50 µg/mL [3] [%]	inhibition of growth at 200 µg/mL [4] [%]	inhibition of growth at 20 µg/mL [5] [%]	growth inhibition (GI) [6]	inhibition of growth at 5 µg/mL [7] [%]	inhibition of growth at 10 µg/mL [8] [%]
CC1COc2c(N3CCN(C)CC3)c(F)cc3c(=O)c(C(=O)O)cn1c23 (centres undefined) [OFLOXACIN]	100	2 µg/mL (≈ 5.53 µM)						
CCCCCCCCCCCCOCc1cn([C@H]2C[C@H](O)[C@@H](CO)O2)c(=O)[nH]c1=O	50	50 µg/mL (≈ 117 µM)	100	100				
CCCCCCCCCCCCOCc1cn([C@H]2C[C@H](N)[C@@H](CO)O2)c(=O)[nH]c1=O		20 µg/mL (≈ 47 µM)	100	100	100			
CN[C@@H]1[C@H](O[C@H]2[C@H](O[C@H]3[C@H](O)[C@@H](O)[C@H](N=C(N)N)[C@@H](O)[C@@H]3N=C(N)N)O[C@@H](C)[C@]2(O)C=O)O[C@@H](CO)[C@H](O)[C@H]1O						inactive		
NC(=O)c1cnccn1						inactive		
CCCCCCCCCCCCc1cn(Cc2cn([C@H]3C[C@H](O)[C@@H](CO)O3)c(=O)[nH]c2=O)nn1		10 µg/mL (≈ 20.9 µM)	100		99		90	99
NNC(=O)c1ccncc1 [ISONIAZID]		inactive				inactive		
CCCCCCCCCCCCc1cn(Cc2cn([C@H]3C[C@H](O)[C@@H](CO)O3)c(=O)nc2N)nn1		10 µg/mL (≈ 21 µM)	100		100			99
CC[C@@H](CO)NCCN[C@@H](CC)CO						inactive		
CO[C@H]1/C=C/O[C@@]2(C)Oc3c(C)c(O)c4c(O)c(c(/C=N/N5CCN(C)CC5)c(O)c4c3C2=O)NC(=O)/C(C)=C\C=C\[C@H](C)[C@H](O)[C@@H](C)[C@@H](O)[C@@H](C)[C@H](OC(C)=O)[C@@H]1C [RIFAMPIN]		inactive				inactive		
CCCCCCCCCCc1cn(Cc2cn([C@H]3C[C@H](O)[C@@H](CO)O3)c(=O)nc2N)nn1		50 µg/mL (≈ 111 µM)	100		75			
CCCCCCCCCCc1cn(Cc2cn([C@H]3C[C@H](O)[C@@H](CO)O3)c(=O)[nH]c2=O)nn1		10 µg/mL (≈ 22.2 µM)	100		100		75	99
